“Also recorded” adds a separate entry of the source.

One experiment relates to RMA T lymphoma. As to the kind of experiment: RMA T lymphoma growth, rejection and survival in mice treated with caffeine and/or 60% oxygen. Format: in vivo, C57BL/6 mice.
The subject of a further experiment is TNP-specific IgM. As to the kind of experiment: TNP-KLH/CFA immunization with IFA booster, indirect ELISA of TNP-specific IgM (Example 2). Format: in vivo, C57B1/6 mice. (In general: An ELISA detects its analyte on a solid surface through an enzyme-linked reagent.)
The subject of the next experiment is B16 melanoma. In words: B16 melanoma growth and survival in mice given GM-CSF-transfected B16 tumor vaccine. Particulars: for survival of mice: log-rank. It counts as in vivo, C57BL/6 mice. From the text: Tumor melanoma cells are transfected with GM-CSF then irradiated or treated with anti-proliferative drug, mitomycin C, in order to prevent the proliferation of these tumor vaccine cells in a patient to be injected with this vaccine. […] Hodi F S, Dranoff G. Combinatorial cancer immunotherapy. Adv Immunol. 2006; 90:341-68
B16 melanoma (1×10^6 cells, s.c.) were inoculated to syngeneic C57BL/6 mice. All the mice received tumor vaccination, GM-CSF transfectant of B16 cells (1×10^6 cells, s.c.), for 3 times in every week starting from day 2. On the same day, treatment with KW6002 (2 mg/kg, daily s.c. injection) and/or 60% oxygen was started until the end of the experiment. B16 tumor growth was retarded by treatment with 60% oxygen and combined treatment with KW6002 (left). Perpendicular tumor diameters were measured and tumor volumes were calculated according to the formula a2×b×0.52, where a is the smaller and b is the larger tumor diameter. […] The mice were euthanized when tumor reached 2.0 cm in diameter or became ulcerated. […] The difference was statistically significant with control vs 60% O2 (p=0.033) and control vs 60% O2+KW (p=0.001). The statistics was calculated by log-rank test.

Experiment [1] concerns MCA 205 fibrosarcoma lung metastases. In words: Adoptive immunotherapy of MCA 205 fibrosarcoma lung metastases. Format: in vivo, mice. Particulars: KW6002 20 mg/kg daily i.p. with adoptive transfer of 12.5×10^6 anti-tumor T cells; day 21. How it is done: Here, we observed the effect of adoptively transferred anti-tumor T cells on the weakly immunogenic MCA 205 fibrosarcoma lung metastases if treatment included A2AR antagonist KW6002. It is shown that treatment with this long-lived A2AR antagonist may strongly enhance the efficacy of adoptive immunotherapy (FIG. 7).
CTLs were prepared from tumor draining lymph nodes isolated from lymph nodes 12 days after s.c. inoculation with 1.5×105 MCA205 fibrosarcoma. After 2 days anti-CD3 activation and additional 3 days IL-2 expansion, these T cells were injected into mice with 10 days established pulmonary metastases (3×10^5 MCA205 cells). After the adoptive transfer, the mice received daily i.p. injection of 20 mg/kg of KW6002. The pulmonary metastases were examined by day 21 after tumor inoculation. (Please note that tumors appear as white nodules upon the ink injected lungs.)

Another experiment has as its target T1, A2AR (Homo sapiens, UniProt P29274).
T1 construct: host or cells: cells, not specified
As to the kind of experiment: Control assay of ex vivo serum from caffeine-treated mice on adenosine→A2AR-induced cAMP accumulation in cells. Particulars: ex vivo serum from mice given caffeine 0.1% w/v in drinking water. Format: cell-based.

Where [2] appears, read: caffeine alone in drinking water (0.1% w/v), FIG. 2.

T1 sequence (P29274 whole entry): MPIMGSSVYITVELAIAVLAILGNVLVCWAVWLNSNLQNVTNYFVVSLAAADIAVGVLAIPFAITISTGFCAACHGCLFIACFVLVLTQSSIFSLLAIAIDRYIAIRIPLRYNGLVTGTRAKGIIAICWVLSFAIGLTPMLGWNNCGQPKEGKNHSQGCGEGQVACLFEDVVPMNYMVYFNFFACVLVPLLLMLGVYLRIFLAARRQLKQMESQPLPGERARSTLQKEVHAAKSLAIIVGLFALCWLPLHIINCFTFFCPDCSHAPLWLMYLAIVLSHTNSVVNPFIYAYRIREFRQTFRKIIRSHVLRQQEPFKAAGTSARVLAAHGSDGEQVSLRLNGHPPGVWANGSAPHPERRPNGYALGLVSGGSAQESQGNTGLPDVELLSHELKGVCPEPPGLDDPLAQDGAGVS

On to oxygen, for which the tumor rejection result in the experiment with RMA T lymphoma (high dose RMA 3×10^5 cells s.c., 60% oxygen alone, n=8, most of the mice) is recorded as “did not reject the tumor; also recorded: couldn't reject the tumor”. In the experiment on TNP-specific IgM (60% oxygen after vaccination versus normal oxygen, FIG. 4A), the “TNP-specific IgM production” value is listed as “produced more IgM than control immunized mice”. Moreover, the B16 tumor growth entry in the experiment with B16 melanoma (60% oxygen alone, with tumor vaccine, n=8) is listed as “retarded”. In the experiment on B16 melanoma (60% oxygen alone, with tumor vaccine, p=0.033 vs control), the survival of mice result is “prolonged survival of mice”.
As to `CCn1c(=O)c2c(nc(/C=C/c3ccc(OC)c(OC)c3)n2C)n(CC)c1=O` [KW6002, (E)-8-(3,4-dimethoxystyryl)-1,3-diethyl-7-methylxanthine], in experiment [1], the “lung tumor nodules (pulmonary metastases)” value was “most of the tumor nodules were eliminated”. The B16 tumor growth result in the experiment on B16 melanoma (KW6002 2 mg/kg daily s.c. combined with 60% oxygen, n=8, 2 mg/kg) is “can significantly retard tumor growth; also recorded: retarded”. Besides, the survival of mice entry with B16 melanoma (KW6002 2 mg/kg daily s.c. combined with 60% oxygen, p=0.001 vs control) is recorded as “prolonged survival of mice”.
`Cn1c(=O)c2c(ncn2C)n(C)c1=O` [caffeine, 1,3,7-trimethylxanthine]: in the experiment on RMA T lymphoma (setting [2]), the RMA tumor growth entry is given as “delayed tumor growth in mice” and the survival result was “no significant improvement of survival”. For the same molecule, the “rejection of RMA T lymphoma” value with RMA T lymphoma (combined treatment with caffeine and high (60%) oxygen atmosphere) is “significantly improved spontaneous rejection of RMA T lymphoma; also recorded: dramatically improving tumor rejection and survival; also recorded: significantly improved T cell-mediated rejection of RMA T lymphoma”. For the same molecule, the survival of mice result in the experiment with RMA T lymphoma (low dose RMA 2×10^5 cells s.c., combined caffeine and 60% oxygen, about 30% of control mice survived) is “significantly improved survival of mice”. For the same molecule, the “effectiveness of immunization (TNP-specific IgM)” value in the experiment with TNP-specific IgM (caffeine in drinking water added to 60% oxygen versus 60% oxygen alone, FIG. 4B) was “further improved effectiveness of immunization”. For the same molecule, the “in vivo levels of caffeine in serum versus adenosine→A2AR-induced cAMP accumulation” value at A2AR is “sufficiently high to prevent (antagonize) adenosine→A2AR-induced cAMP accumulation in cells”.

For the origin of these results see patent publication US20100178299A1, “METHODS AND COMPOSITIONS FOR IMPROVING IMMUNE RESPONSES” (Northeastern University, priority 2007, published 2010).
